Test results published in patent US9550796B2, “Pyrrolopyrrolone derivatives and their use as BET inhibitors” (NOVARTIS AG, priority 2013, dated 2017).
pIC50: −log10 of the molar value.

Legend:
K-562 = assay: Cell growth inhibition assay (CellTiter-Glo), K-562; assay type: cell-based, human; details: K-562 cells, 4 days; for GI50: Homo sapiens, K562, 96 h, half-maximal growth inhibition; for K-562 TGI: total growth inhibition
How it was run: (§1)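 4-day CTG ATP readout, 37 °C/5% CO2; top conc 10 μM, 3-fold dilutions; 0.1% DMSO vehicle. Luminescence background-subtracted, normalised to day 0 plate; vehicle = 100%, medium = −100%. IC50/TGI by 4-parameter fit.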

THP-1 = assay: Cell growth inhibition assay (CellTiter-Glo), THP-1; assay type: cell-based, human; details: THP-1 cells, 4 days; for GI50: Homo sapiens, 96 h, half-maximal growth inhibition; for THP-1 TGI: total growth inhibition
How it was run: as §1

BRD4 = BRD4 (Homo sapiens (Human), UniProt O60885); assay: TR-FRET in-vitro binding assay for BRD4; details: 45 nM His-Brd4(44-477), acetyl-histone H4 (AcK 5, 8, 12, 16) peptide
How it was run: (§2)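 Binding is detected by TR-FRET following incubation for 35 minutes at 30° C.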

MV-4-11 = assay: Cell growth inhibition assay (CellTiter-Glo), MV-4-11; assay type: cell-based, human; details: MV-4-11 cells, 4 days; for GI50: Homo sapiens, MV4-11, 96 h, half-maximal growth inhibition; for MV-4-11 TGI: total growth inhibition
How it was run: as §1

BRD2 = BRD2 (Homo sapiens (Human), UniProt P25440); assay: TR-FRET in-vitro binding assay for BRD2; details: 45 nM His-Brd2(60-472), acetyl-histone H4 (AcK 5, 8, 12, 16) peptide
How it was run: as §2

BRD3 = BRD3 (Homo sapiens (Human), UniProt Q15059); assay: TR-FRET in-vitro binding assay for BRD3; details: 45 nM His-Brd3(20-477), acetyl-histone H4 (AcK 5, 8, 12, 16) peptide
How it was run: as §2

CREBBP = CREBBP (Homo sapiens (Human), UniProt Q92793); assay: AlphaScreen in-vitro binding assay for CREBBP; details: 324 nM His-CREBBP (1081-1197), acetyl-histone H4 (AcK 5, 8, 12) peptide
How it was run: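 IC50 values were derived by non-linear regression of percent inhibition across 8 compound concentrations. Protein was His-tagged CREBBP bromodomain (1081-1197), peptide acetyl-histone H4 (AcK 5, 8, 12), in HEPES pH 7.5 buffer. Read-out was AlphaScreen with Ni-chelate acceptor and streptavidin donor beads, 35 min at 30° C then 60 min at RT.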

Chain of BRD2 (P25440 60-472): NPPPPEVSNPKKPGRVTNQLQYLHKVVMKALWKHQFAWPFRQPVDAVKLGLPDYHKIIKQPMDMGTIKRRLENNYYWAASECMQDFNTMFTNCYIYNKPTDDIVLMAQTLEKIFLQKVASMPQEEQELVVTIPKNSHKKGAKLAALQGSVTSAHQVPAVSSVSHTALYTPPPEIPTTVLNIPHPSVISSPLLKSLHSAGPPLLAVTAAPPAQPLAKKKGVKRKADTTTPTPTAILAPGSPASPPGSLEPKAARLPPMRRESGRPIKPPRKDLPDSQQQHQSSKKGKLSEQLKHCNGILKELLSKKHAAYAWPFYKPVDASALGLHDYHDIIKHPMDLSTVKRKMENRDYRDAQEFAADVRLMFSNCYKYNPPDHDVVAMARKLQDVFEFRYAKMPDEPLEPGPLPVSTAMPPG
Chain of CREBBP (Q92793 1081-1197): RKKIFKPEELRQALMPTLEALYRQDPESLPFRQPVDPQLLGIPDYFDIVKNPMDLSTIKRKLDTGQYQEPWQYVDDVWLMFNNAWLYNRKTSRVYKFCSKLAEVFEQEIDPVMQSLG
Chain of BRD3 (Q15059 20-477): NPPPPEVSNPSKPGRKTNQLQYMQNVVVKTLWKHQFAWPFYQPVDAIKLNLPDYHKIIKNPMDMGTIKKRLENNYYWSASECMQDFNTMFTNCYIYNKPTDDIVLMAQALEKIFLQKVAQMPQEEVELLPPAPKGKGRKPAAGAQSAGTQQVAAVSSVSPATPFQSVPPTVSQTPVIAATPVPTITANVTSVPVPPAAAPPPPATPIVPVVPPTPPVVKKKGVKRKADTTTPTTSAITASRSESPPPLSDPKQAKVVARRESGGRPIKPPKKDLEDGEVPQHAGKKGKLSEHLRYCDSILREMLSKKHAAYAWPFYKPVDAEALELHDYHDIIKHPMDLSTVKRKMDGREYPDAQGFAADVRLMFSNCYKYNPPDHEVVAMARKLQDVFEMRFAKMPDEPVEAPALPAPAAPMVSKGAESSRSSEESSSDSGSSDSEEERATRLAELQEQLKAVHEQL

Row | Compound | GI50 (K-562) [nM] | GI50 (THP-1) [nM] | pIC50 (BRD4) | GI50 (MV-4-11) [nM] | pIC50 (BRD2) | pIC50 (BRD3) | pIC50 (CREBBP) | K-562 TGI (K-562) [nM] | THP-1 TGI (THP-1) [nM] | MV-4-11 TGI (MV-4-11) [nM]
1 | Cc1cc(N2C(=O)c3ccn(C)c3C2c2ccc(Cl)c(F)c2)cn(C)c1=O (stereo not drawn) [Example 80, 6-(4-chloro-3-fluorophenyl)-5-(1,5-dimethyl-6-oxo-1,6-dihydropyridin-3-yl)-1-methyl-5,6-dihydropyrrolo[3,4-b]pyrrol-4(1H)-one] | 455 | 146 | 6.81 | 148 | 6.54 | 6.83 | 5.82 | >10000 | 369.5 | 267
2 | Cc1ccc(C2c3c(ccn3C)C(=O)N2c2cc(C)c(=O)n(C)c2)cc1 (stereo not drawn) [Example 81, 5-(1,5-dimethyl-6-oxo-1,6-dihydropyridin-3-yl)-1-methyl-6-(p-tolyl)-5,6-dihydropyrrolo[3,4-b]pyrrol-4(1H)-one] | 721 | 149 | 6.88 | 79.8 | 6.90 | 7.09 | 5.35 | >10000 | 300 | 121
3 | Cc1cc(N2C(=O)c3ccn(C)c3C2c2ccc(F)cc2)cn(C)c1=O (stereo not drawn) [Example 82, 5-(1,5-dimethyl-6-oxo-1,6-dihydropyridin-3-yl)-6-(4-fluorophenyl)-1-methyl-5,6-dihydropyrrolo[3,4-b]pyrrol-4(1H)-one] | 618 | 206 | 6.71 | 104 | 6.64 | 6.85 | 5.33 | >10000 | 397 | 189
4 | Cc1cc(N2C(=O)c3ccn(C)c3C2c2ccc(C#N)cc2)cn(C)c1=O (stereo not drawn) [Example 83, 4-(5-(1,5-dimethyl-6-oxo-1,6-dihydropyridin-3-yl)-1-methyl-4-oxo-1,4,5,6-tetrahydropyrrolo[3,4-b]pyrrol-6-yl)benzonitrile] | 1130 | 634 | 6.49 | 326 | 6.56 | 6.70 | 5.15 | >10000 | 1270 | 636
5 | COc1ccc(C2c3c(ccn3C)C(=O)N2c2cc(C)c(=O)n(C)c2)cc1 (stereo not drawn) [Example 84, 5-(1,5-dimethyl-6-oxo-1,6-dihydropyridin-3-yl)-6-(4-methoxyphenyl)-1-methyl-5,6-dihydropyrrolo[3,4-b]pyrrol-4(1H)-one] | 548 | 167 | 6.64 | 158 | 6.71 | 6.79 | 5.33 | >10000 | 419.5 | 338.5
6 | Cn1ccc2c1C(c1ccccc1)N(c1cc(Cl)c(=O)n(C)c1)C2=O (stereo not drawn) [Example 86, 5-(5-chloro-1-methyl-6-oxo-1,6-dihydropyridin-3-yl)-1-methyl-6-phenyl-5,6-dihydropyrrolo[3,4-b]pyrrol-4(1H)-one] | 1100 | 392 | 6.36 | 338 | 6.36 | 6.56 | 4.74 | >10000 | 795.5 | 642
7 | Cn1ccc2c1C(c1ccc(F)cc1)N(c1cc(Cl)c(=O)n(C)c1)C2=O (stereo not drawn) [Example 88, 5-(5-chloro-1-methyl-6-oxo-1,6-dihydropyridin-3-yl)-6-(4-fluorophenyl)-1-methyl-5,6-dihydropyrrolo[3,4-b]pyrrol-4(1H)-one] | 715 | 321 | 6.48 | 210 | 6.54 | 6.72 | 5.12 | >10000 | 683 | 359
8 | Cn1ccc2c1C(c1ccc(C#N)cc1)N(c1cc(Cl)c(=O)n(C)c1)C2=O (stereo not drawn) [Example 89, 4-(5-(5-chloro-1-methyl-6-oxo-1,6-dihydropyridin-3-yl)-1-methyl-4-oxo-1,4,5,6-tetrahydropyrrolo[3,4-b]pyrrol-6-yl)benzonitrile] | 1910 | 598 | 6.45 | 402 | 6.64 | 6.68 | 4.97 | >10000 | 2015 | 785
9 | Cn1ccc2c1C(c1ccc(Cl)c(F)c1)N(c1cc(Cl)c(=O)n(C)c1)C2=O (stereo not drawn) [Example 90, 5-(5-chloro-1-methyl-6-oxo-1,6-dihydropyridin-3-yl)-6-(4-chloro-3-fluorophenyl)-1-methyl-5,6-dihydropyrrolo[3,4-b]pyrrol-4(1H)-one] | 618 | 218 | 6.57 | 222 | 6.58 | 6.71 | 5.84 | >10000 | 446.5 | 407.5

These reach a lower GI50 (K-562). Values come first.

Row | GI50 (K-562) [nM] | GI50 (THP-1) [nM] | pIC50 (BRD4) | GI50 (MV-4-11) [nM] | pIC50 (BRD2) | pIC50 (BRD3) | pIC50 (CREBBP) | Compound | K-562 TGI (K-562) [nM] | THP-1 TGI (THP-1) [nM] | MV-4-11 TGI (MV-4-11) [nM]
10 | 266 | 83.9 | 6.92 | 75.3 | 6.97 | 7.12 | 5.39 | Cc1ccc(C2c3c(ccn3C)C(=O)N2c2cc(Cl)c(=O)n(C)c2)cc1 (stereo not drawn) [Example 87, 5-(5-chloro-1-methyl-6-oxo-1,6-dihydropyridin-3-yl)-1-methyl-6-(p-tolyl)-5,6-dihydropyrrolo[3,4-b]pyrrol-4(1H)-one] | >10000 | 255 | 151
11 | 27.4 | 3.12 | 7.89 | 2.54 | 7.82 | 7.85 | < 4.43 | CNC(=O)c1cn(C)c2c1C(=O)N(c1cc(C)c3nnn(C)c3n1)C2c1ccc(Cl)cc1 (stereo not drawn) [Example 93, 6-(4-chlorophenyl)-5-(3,7-dimethyl-3H-[1,2,3]triazolo[4,5-b]pyridin-5-yl)-N,1-dimethyl-4-oxo-1,4,5,6-tetrahydropyrrolo[3,4-b]pyrrole-3-carboxamide] | >10000 | 11.24 | 10.49
12 | 34.6 | 12.4 | 7.92 | 8.19 | 7.77 | 7.89 | < 4.43 | Cc1cc(N2C(=O)c3c(C(=O)N(C)C)cn(C)c3C2c2ccc(Cl)cc2)nc2c1nnn2C (stereo not drawn) [Example 94, 6-(4-chlorophenyl)-5-(3,7-dimethyl-3H-[1,2,3]triazolo[4,5-b]pyridin-5-yl)-N,N,1-trimethyl-4-oxo-1,4,5,6-tetrahydropyrrolo[3,4-b]pyrrole-3-carboxamide] | >10000 | 29.85 | 21.95
13 | 123 | 34.9 | 7.80 | 31.4 | 7.47 | 7.59 | < 4.43 | Cc1cc(N2C(=O)c3c(NC(=O)OC(C)(C)C)cn(C)c3C2c2ccc(Cl)cc2)nc2c1nnn2C (stereo not drawn) [Example 95, Tert-butyl (6-(4-chlorophenyl)-5-(3,7-dimethyl-3H-[1,2,3]triazolo[4,5-b]pyridin-5-yl)-1-methyl-4-oxo-1,4,5,6-tetrahydropyrrolo[3,4-b]pyrrol-3-yl)carbamate] | >10000 | 81.5 | 63.1
14 | 32.8 | 11.2 | 7.80 | 10.9 | 7.44 | 7.77 | < 4.43 | CC(=O)Nc1cn(C)c2c1C(=O)N(c1cc(C)c3nnn(C)c3n1)C2c1ccc(Cl)cc1 (stereo not drawn) [Example 96, N-(6-(4-chlorophenyl)-5-(3,7-dimethyl-3H-[1,2,3]triazolo[4,5-b]pyridin-5-yl)-1-methyl-4-oxo-1,4,5,6-tetrahydropyrrolo[3,4-b]pyrrol-3-yl)acetamide] | >10000 | 21.25 | 21.2
15 | 48.7 | 17.9 | 7.46 | 13.7 | 7.82 | > 7.96 | < 4.43 | CCOC(=O)Nc1cn(C)c2c1C(=O)N(c1cc(C)c3nnn(C)c3n1)C2c1ccc(Cl)cc1 (stereo not drawn) [Example 97, Ethyl (6-(4-chlorophenyl)-5-(3,7-dimethyl-3H-[1,2,3]triazolo[4,5-b]pyridin-5-yl)-1-methyl-4-oxo-1,4,5,6-tetrahydropyrrolo[3,4-b]pyrrol-3-yl)carbamate] | >10000 | 33.45 | 24.95
